Columns and labels:
[1] = target: T1, VEGF-R2 (Rattus norvegicus, UniProt O08775); assay: VEGF-R2 Screening Assay; type: biochemical; conditions: 33P-γ-ATP incorporation, 10 μM ATP
T1 construct: polyhistidine (N)
Method: Then 1 μL of test compound stock in 100% DMSO was added to the wells resulting in a final concentration of 1% DMSO in the reaction with a 100 μL final reaction volume. The CDK1:Cyclin-B protein was then diluted in 50 mM Tris-HCl pH=8.0, 0.1% BSA at a concentration of 1 ng per μL and 30 μL (30 ng enzyme per test well) was added to each well to initiate the reaction. The reaction was incubated for one hour at 30° C. At the end of the 1 h incubation, the reaction was terminated by aspirating the mixture from the plate and washing the wells twice with PBS containing 100 mM EDTA. The histone-H1 biotinylated peptide substrate became immobilized on the Flashplate™ and the incorporation of ^33P-γ-ATP was measured by reading the plate on a scintillation counter. Inhibition of the enzymatic activity of CDK1 was measured by observing a reduced amount of ^33P-γ-ATP incorporated into the immobilized peptide. The VEGF-R kinase assay was carried out using the CDK kinase assay procedure except that the enzyme was replaced with the VEGF-R2 fusion protein containing a polyhistidine tag at the N-terminus followed by amino acids 786-1343 of the rat VEGF-R2 kinase domain (GenBank Accession #U93306).

[2] = target: T2, Aurora-A (Mus musculus, UniProt P97477); assay: Aurora-A Screening Assay; type: biochemical, murine; conditions: 33P-γ-ATP incorporation, 10 μM ATP
T2 construct: made in house; host or cells: sf9 insect cells
T2 sequence (P97477 1-395): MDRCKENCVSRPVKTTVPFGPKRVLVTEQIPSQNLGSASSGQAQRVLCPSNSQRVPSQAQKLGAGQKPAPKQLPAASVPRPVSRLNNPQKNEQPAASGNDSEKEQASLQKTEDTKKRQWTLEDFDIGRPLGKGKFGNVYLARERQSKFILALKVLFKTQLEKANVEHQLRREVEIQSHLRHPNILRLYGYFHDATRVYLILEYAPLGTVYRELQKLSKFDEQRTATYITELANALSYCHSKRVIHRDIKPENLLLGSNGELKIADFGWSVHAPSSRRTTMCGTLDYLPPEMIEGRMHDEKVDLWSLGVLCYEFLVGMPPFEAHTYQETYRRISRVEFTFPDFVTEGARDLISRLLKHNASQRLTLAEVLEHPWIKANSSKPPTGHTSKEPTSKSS
Method: (§1) A kinase reaction mixture was prepared containing 50 mM Tris-HCl pH=8, 10 mM MgCl2, 0.1 mM […], 1 mM DTT, 10 μM ATP, 0.025 μM biotinylated histone-HI peptide substrate and […] per well ^33P-γ-ATP (2000-3000 Ci/mmol). 70 μL of the kinase reaction mixture was dispensed into the well of a streptavidin coated FlashPlate™ (Cat. # SMP103, NEN, Boston, Mass.). Then 1 μL of test compound stock in 100% DMSO was added to the wells resulting in a final concentration of 1% DMSO in the reaction with a 100 μL final reaction volume.
(§2) The CDK1:Cyclin-B protein was then diluted in 50 mM Tris-HCl pH=8.0, 0.1% BSA at a concentration of 1 ng per μL and 30 μL (30 ng enzyme per test well) was added to each well to initiate the reaction. The reaction was incubated for one hour at 30° C. At the end of the 1 h incubation, the reaction was terminated by aspirating the mixture from the plate and washing the wells twice with PBS containing 100 mM EDTA. The histone-H1 biotinylated peptide substrate became immobilized on the Flashplate™ and the incorporation of ^33P-γ-ATP was measured by reading the plate on a scintillation counter. Inhibition of the enzymatic activity of CDK1 was measured by observing a reduced amount of ^33P-γ-ATP incorporated into the immobilized peptide.
The Aurora-A kinase assay was carried out using the CDK kinase assay procedure except that the enzyme was replaced with the full length protein encoding the murine Aurora-A (Accession# GB BC014711) expressed and purified from sf9 insect cells.
(§3) • VEGF-R2, HER2 and (Biotin)[…]-Amide • RET kinases • CDK1 (Biotin)[…]-Amide • Aurora-A kinase Biotin-[…]-Amide

[3] = target: T3, RET (Homo sapiens, UniProt P07949); assay: RET Kinase Screening Assay; type: biochemical; conditions: 33P-γ-ATP incorporation, 10 μM ATP
T3 construct: the RET cytoplasmic domain consisting of the last 492 amino acids of the intracellular domain of the RET tyrosine kinase; histidine tag (N); made in house; host or cells: Hi5 insect cells
T3 sequence (P07949 658-1114 limits assumed): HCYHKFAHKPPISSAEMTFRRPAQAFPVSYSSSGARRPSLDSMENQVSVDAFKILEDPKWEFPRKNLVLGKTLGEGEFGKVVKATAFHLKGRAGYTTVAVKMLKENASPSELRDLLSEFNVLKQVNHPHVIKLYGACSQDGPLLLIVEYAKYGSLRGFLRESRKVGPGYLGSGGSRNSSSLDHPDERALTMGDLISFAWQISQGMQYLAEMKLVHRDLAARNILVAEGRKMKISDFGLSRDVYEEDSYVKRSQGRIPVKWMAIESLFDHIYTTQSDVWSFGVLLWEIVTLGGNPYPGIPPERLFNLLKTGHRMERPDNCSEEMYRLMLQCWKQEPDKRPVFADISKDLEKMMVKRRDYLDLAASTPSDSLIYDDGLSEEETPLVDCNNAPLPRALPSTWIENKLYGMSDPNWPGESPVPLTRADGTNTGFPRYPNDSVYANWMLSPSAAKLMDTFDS

[4] = test system: HeLa cervical adenocarcinoma; assay: Inhibition of cell proliferation (14C-thymidine incorporation), HeLa; type: cell-based; conditions: Homo sapiens;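 note: HeLa cells in 96-well scintillating plates, compound for 24 h then 24 h more with 14C-thymidine, counting label built into new DNA against DMSO-only control wells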
[5] = test system: HCT-116 colon carcinoma; assay: Inhibition of cell proliferation (14C-thymidine incorporation), HCT-116; type: cell-based; conditions: Homo sapiens, HCT-116, HCT116
Method: (§4) The ability of a test compound to inhibit the proliferation of cell growth was determined by measuring incorporation of ^14C-labelled thymidine into newly synthesized DNA within the cells. This method was used on cell lines derived from carcinomas originating from several tissues such as HeLa cervical adenocarcinoma (American Type Culture Collection (ATCC), Virginia, Cat. #CCL-2), A375 malignant melanoma (ATCC CRL-1619), HCT-116 colon carcinoma (CCL-247). In this way the effect of a compound on cell growth of cells with many different phenotypes can be determined. Cells were trypsinized and counted and 3000-8000 cells were added to each well of a 96-well CytoStar tissue culture treated scintillating microplate (Amersham #RPNQ0160) in complete medium in a volume of 100 μL. Cells were incubated for 24 hours in complete medium at 37° C. in an atmosphere containing 5% CO2.
(§5) Next, 1 μL of test compound in 100% DMSO was added to the wells of the plate. DMSO only was added to control wells. Cells were incubated for 24 more hours in complete medium at 37° C. in an atmosphere containing 5% CO2. Methyl ^14C-thymidine 56 mCi/mmol (NEN #NEC568 or Amersham #CFA532) was diluted in complete medium and 0.2 uCi/well was added to each well of the CytoStar plate in a volume of 20 μl. The plate was incubated for 24 hours at 37° C. plus 5% CO2 in drug plus ^14C-thymidine. The contents of the plate discarded into a ^14C radioactive waste container by inverting the plate and the plate was washed twice with 200 μL PBS.
(§6) 200 μL of PBS is added to each well. The top of the plate was sealed with a transparent plate sealer and a white plate backing sealer (Packard #6005199) was applied to the bottom of the plate. The degree of methyl ^14C-thymidine incorporation was quantified on a Packard Top Count.

[6] = test system: A375 malignant melanoma; assay: Inhibition of cell proliferation (14C-thymidine incorporation), A375; type: cell-based, human; conditions: Homo sapiens, A-375
Method: as §4, §5, §6

[7] = target: T4, CDK1:Cyclin-B (Homo sapiens, UniProt P06493); assay: CDK1 Screening Assay; type: biochemical; conditions: 33P-γ-ATP incorporation, 10 μM ATP
T4 construct: purchased New England Biolabs, Beverly, Mass; 6020; host or cells: insect cells
Method: as §1, §2
The CDK1 used was isolated from insect cells expressing both the human CDK1 catalytic subunit and its positive regulatory subunit cyclin B (New England Biolabs, Beverly, Mass., Cat. #6020).
as §3

T4 sequence (P06493 whole entry): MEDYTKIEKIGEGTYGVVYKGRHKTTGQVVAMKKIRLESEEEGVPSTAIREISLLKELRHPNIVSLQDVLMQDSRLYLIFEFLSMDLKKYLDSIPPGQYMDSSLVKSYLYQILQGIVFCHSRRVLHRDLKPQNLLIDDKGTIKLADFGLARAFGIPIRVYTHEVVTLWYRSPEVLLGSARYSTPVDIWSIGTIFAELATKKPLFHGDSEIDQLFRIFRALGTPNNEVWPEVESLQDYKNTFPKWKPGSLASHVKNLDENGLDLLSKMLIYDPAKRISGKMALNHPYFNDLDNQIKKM
T4 sequence (P14635 whole entry partner): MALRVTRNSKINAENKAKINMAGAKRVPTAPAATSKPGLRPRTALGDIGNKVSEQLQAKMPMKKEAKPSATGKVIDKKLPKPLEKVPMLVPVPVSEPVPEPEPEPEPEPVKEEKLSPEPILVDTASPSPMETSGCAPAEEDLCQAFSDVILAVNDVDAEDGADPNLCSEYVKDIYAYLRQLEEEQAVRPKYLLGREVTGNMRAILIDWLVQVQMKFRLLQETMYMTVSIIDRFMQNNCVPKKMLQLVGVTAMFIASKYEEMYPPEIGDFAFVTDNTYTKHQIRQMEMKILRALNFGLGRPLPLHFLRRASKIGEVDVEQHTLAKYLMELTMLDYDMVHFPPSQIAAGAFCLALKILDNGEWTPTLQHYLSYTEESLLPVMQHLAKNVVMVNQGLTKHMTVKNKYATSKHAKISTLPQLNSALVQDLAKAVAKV
T1 sequence (O08775 786-1343): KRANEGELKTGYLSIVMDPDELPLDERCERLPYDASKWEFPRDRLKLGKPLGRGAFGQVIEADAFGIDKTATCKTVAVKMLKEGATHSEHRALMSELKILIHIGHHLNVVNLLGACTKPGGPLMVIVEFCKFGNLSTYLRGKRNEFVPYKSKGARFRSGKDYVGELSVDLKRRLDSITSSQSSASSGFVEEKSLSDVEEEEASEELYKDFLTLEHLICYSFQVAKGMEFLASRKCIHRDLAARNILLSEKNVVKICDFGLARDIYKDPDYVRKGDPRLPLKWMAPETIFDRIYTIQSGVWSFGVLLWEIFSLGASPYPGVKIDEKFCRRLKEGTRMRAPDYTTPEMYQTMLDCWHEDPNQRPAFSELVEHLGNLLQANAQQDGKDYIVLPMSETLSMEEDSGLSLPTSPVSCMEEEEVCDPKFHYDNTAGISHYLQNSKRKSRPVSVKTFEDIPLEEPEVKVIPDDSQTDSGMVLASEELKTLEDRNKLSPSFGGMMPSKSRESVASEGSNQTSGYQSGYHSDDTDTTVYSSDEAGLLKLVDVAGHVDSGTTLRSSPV

| Structure (SMILES) | IC50 [1] [µM] | IC50 [2] [µM] | IC50 [3] [µM] | IC50 [4] [µM] | IC50 [5] [µM] | IC50 [6] [µM] | IC50 [7] [µM] |
| --- | --- | --- | --- | --- | --- | --- | --- |
| Cc1cc(CCN2CCCC2)ccc1Nc1nccc(-c2c[nH]c3ncccc23)n1 [Cpd 48] | 0.875 | 0.86 | 3.52 | 0.00255 | 0.00301 | 0.00255 | – |
| CN1CCC(Nc2nccc(-c3c[nH]c4ncccc34)n2)CC1 [Cpd 61, (1-Methylpiperidin-4-yl)-[4-(1H-pyrrolo[2,3-b]pyridin-3-yl)-pyrimidin-2-yl]-amine] | 10 | 2.25 | – | 0.026 | 0.0153 | 0.0214 | 0.129 |
| NC1CCN(c2nccc(-c3c[nH]c4ncccc34)n2)CC1 [Cpd 62, 1-[4-(1H-pyrrolo[2,3-b]pyridin-3-yl)-pyrimidin-2-yl]-piperidin-4-ylamine] | 2.67 | 0.762 | – | 1.08 | 0.525 | 0.622 | 0.5 |
| CC(=O)NC1CCN(c2nccc(-c3c[nH]c4ncccc34)n2)CC1 [Cpd 63, N-{1-[4-(1H-pyrrolo[2,3-b]pyridin-3-yl)-pyrimidin-2-yl]-piperidin-4-yl}acetamide] | 10 | 4.19 | – | 34.7 | 40 | 16.4 | 2.11 |
| CS(=O)(=O)n1cc(-c2ccnc(NC3CCCCC3)n2)c2cccnc21 [Cpd 67, Cyclohexyl-[4-(1-methanesulfonyl-1H-pyrrolo[2,3-b]pyridin-3-yl)pyrimidin-2-yl]-amine] | 1 | 2.36 | – | 0.393 | 0.298 | 0.504 | 0.128 |
| CC(=O)n1cc(-c2ccnc(NC3CCCCC3)n2)c2cccnc21 [Cpd 68, Cyclohexyl-[4-(1-acetyl-1H-pyrrolo[2,3-b]pyridin-3-yl)pyrimidin-2-yl]-amine] | 1 | 0.32 | – | 0.023 | 0.0129 | 0.0317 | 0.0308 |

Now from value to compound:

| IC50 [1] [µM] | IC50 [2] [µM] | IC50 [3] [µM] | IC50 [4] [µM] | IC50 [5] [µM] | IC50 [6] [µM] | IC50 [7] [µM] | Structure (SMILES) |
| --- | --- | --- | --- | --- | --- | --- | --- |
| 10 | 3.98 | – | 0.135 | 0.0732 | 0.0973 | 0.283 | Cc1[nH]c2ncccc2c1-c1ccnc(N[C@H]2CC[C@H](N)CC2)n1 [Cpd 57, trans-N-[4-(2-Methyl-1H-pyrrolo[2,3-b]pyridin-3-yl)-pyrimidin-2-yl]-cyclohexane-1,4-diamine] |
| 1.54 | 0.566 | – | 0.514 | 0.222 | 0.277 | 0.109 | c1cnc2[nH]cc(-c3ccnc(N[C@@H]4CC5CCC4C5)n3)c2c1 (stereo partly drawn) [Cpd 58, (2R)-Bicyclo[2.2.1]hept-2-yl-[4-(1H-pyrrolo[2,3-b]pyridin-3-yl)-pyrimidin-2-yl]-amine] |
| 0.55 | 0.437 | – | 0.291 | 0.379 | 0.251 | 0.062 | c1cnc2[nH]cc(-c3ccnc(N[C@H]4CC5CCC4C5)n3)c2c1 (stereo partly drawn) [Cpd 59, (2S)-Bicyclo[2.2.1]hept-2-yl-[4-(1H-pyrrolo[2,3-b]pyridin-3-yl)-pyrimidin-2-yl]-amine] |
| 2.46 | 1.51 | – | 0.0411 | 0.0175 | 0.0417 | 0.0373 | c1cnc2[nH]cc(-c3ccnc(NC4CCOCC4)n3)c2c1 [Cpd 60, (Tetrahydropyran-4-yl)-[4-(1H-pyrrolo[2,3-b]pyridin-3-yl)-pyrimidin-2-yl]-amine] |
| 10 | 1.68 | – | 0.136 | 0.0689 | 0.155 | 0.0498 | CC(=O)N1CCC(Nc2nccc(-c3c[nH]c4ncccc34)n2)CC1 [Cpd 64, 1-{4-[4-(1H-pyrrolo[2,3-b]pyridin-3-yl)pyrimidin-2-ylamino]piperidin-1-yl}ethanone] |
| 10 | 6.06 | – | 0.144 | 0.077 | 0.165 | 0.6 | OCCn1cc(-c2ccnc(N[C@H]3CC[C@H](O)CC3)n2)c2cccnc21 [Cpd 72, trans-4-{4-[1-(2-Hydroxyethyl)-1H-pyrrolo[2,3-b]pyridin-3-yl]-pyrimidin-2-ylamino}-cyclohexanol] |
| 3.57 | 0.374 | – | 0.00598 | 0.00762 | 0.00616 | 0.0028 | OCC[C@H]1CC[C@H](Nc2nccc(-c3c[nH]c4ncccc34)n2)CC1 [Cpd 77, trans-2-{4-[4-(1H-pyrrolo[2,3-b]pyridin-3-yl]-pyrimidin-2-ylamino]-cyclohexyl}-ethanol] |
| 6.71 | 1.01 | – | 0.00374 | 0.00313 | 0.00225 | 0.00426 | CNCC[C@H]1CC[C@H](Nc2nccc(-c3c[nH]c4ncccc34)n2)CC1 [Cpd 78, trans-[4-(2-Methylaminoethyl)-cyclohexyl]-[4-(1H-pyrrolo[2,3-b]pyridin-3-yl)-pyrimidin-2-yl]-amine] |
